{
  "source": "patent US7820804B2",
  "about": "“Fluoroglycoside derivatives of pyrazoles, medicaments containing these compounds, and the use thereof” (Sanofi-Aventia Deutschland GmbH, priority 2004, dated 2010)",
  "data": [
    {"target": "T1, human sodium-dependent glucose transporter 1 (SGLT1, SLC5A1) (Homo sapiens, UniProt P13866)", "T1 construct": "Bases 11 to 2005 correspond to the complete coding region of human SGLT1; expressed in transfected cells", "T1 sequence (P13866 1-664)": "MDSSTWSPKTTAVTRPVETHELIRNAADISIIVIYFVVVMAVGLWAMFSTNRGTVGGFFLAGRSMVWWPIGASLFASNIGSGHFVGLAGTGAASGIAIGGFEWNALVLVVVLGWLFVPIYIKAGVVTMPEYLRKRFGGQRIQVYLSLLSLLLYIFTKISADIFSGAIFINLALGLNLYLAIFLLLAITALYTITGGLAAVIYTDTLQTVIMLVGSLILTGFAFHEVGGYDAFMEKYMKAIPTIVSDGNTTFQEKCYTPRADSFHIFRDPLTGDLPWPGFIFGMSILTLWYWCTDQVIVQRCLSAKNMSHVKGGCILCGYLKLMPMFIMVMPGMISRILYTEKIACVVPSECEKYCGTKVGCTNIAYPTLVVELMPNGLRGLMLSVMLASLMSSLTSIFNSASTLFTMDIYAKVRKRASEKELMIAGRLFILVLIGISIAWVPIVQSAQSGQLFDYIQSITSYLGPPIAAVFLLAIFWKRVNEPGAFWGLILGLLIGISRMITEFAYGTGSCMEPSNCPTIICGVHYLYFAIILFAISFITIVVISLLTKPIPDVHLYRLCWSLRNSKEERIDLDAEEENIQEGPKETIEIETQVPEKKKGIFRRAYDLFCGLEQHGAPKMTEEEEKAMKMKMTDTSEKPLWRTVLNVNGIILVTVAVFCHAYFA", "experiment": "Inhibition of methyl α-D-glucopyranoside (α-MDG) uptake in CHO-TRex-hSGLT1 cells", "type": "cell-based", "conditions": "in vitro uptake of methyl α-D-glucopyranoside, 50 μM α-MDG, 30 min at room temperature", "text": "A further method for testing the activity of the compounds is the inhibition of the transport activity of the human sodium-dependent glucose transporter 1 (SGLT1, SLC5A1) in vitro:\n1. Cloning of an Expression Vector for Human SGLT1\nThe cDNA for human SGLT1 was introduced into the pcDNA4/TO vector (Invitrogen) by standard methods of molecular biology as described in Sambrook et al. (Sambrook et al., Molecular Cloning, A Laboratory Manual, 2nd Edition). […] Bases 11 to 2005 correspond to the complete coding region of human SGLT1.\n2. Preparation of a Recombinant Cell Line with Inducible Expression of Human SGLT1\nThe expression vector for human SGLT1 was introduced into CHO-TRex cells (Invitrogen) by means of FuGene6 lipofection (Roche). To select single cell clones, 600 μg/mI Zeocin (Invitrogen) was added to the cell culture medium (Nutrient Mixture F-12 (Ham), (Invitrogen) supplemented with 10% fetal calf serum (BD Biosciences), 10 μg/ml blasticidin S (CN Biosciences), 100 units/ml penicillin, 100 units/ml streptomycin). The functionality of the single cell clones resulting from the selection was tested via their uptake activity for radiolabeled methyl α-D-glucopyranoside. The cell clone with the greatest uptake activity for methyl α-D-glucopyranoside, referred to as CHO-TRex-hSGLT1 hereinafter, was selected for further experiment, and cultivation was continued in the presence of 600 μg/ml of zeocin.\n3. Measurement of the Inhibitory Effect of Test Substances on the Uptake of Methyl […]-D-glucopyranoside ([…]-MDG)\nCHO-TRex-hSGLT1 cells were seeded in a concentration of 50 000 cells per well in Cytostar-T scintillating 96-well plates (Amersham Biosciences) in cell culture medium and cultivated for 24 h. Expression of the recombinant human SGLT1 was induced by adding 1 pg/mI tetracyclin for a further 24 h. For α-MDG uptake experiments, the cells were washed with PBS and then starved (PBS supplemented with 10% fetal calf serum) at 37° C. for one hour. After a further washing step with transport assay buffer (140 mM sodium chloride, 2 mM potassium chloride, 1 mM magnesium chloride, 1 mM calcium chloride, 10 mM HEPES/Tris, pH 7.5), the cells were incubated either in the absence or presence of test substances varying in concentration at room temperature for 15 min. The test substances were diluted appropriately in transport assay buffer (40 μl/well) starting from a 10 mM stock solution in dimethyl sulfoxide.\nThe assay was then started by adding 10 μl of a mixture of radiolabeled methyl α-D-[U-^14C]glucopyranoside (Amersham) and unlabeled methyl α-D-glucopyranoside (Acros). The final concentration of methyl α-D-glucopyranoside in the assay was 50 μM. After an incubation time of 30 min at room temperature, the reaction was stopped by adding 50 µl/well of 10 mM methyl α-D-glucopyranoside in transport assay buffer (4° C.), and the radioactivity uptake by the cells was determined in a MicroBeta Scintillation Microplate Reader (Wallac). The half-maximum inhibitory effect of the test substances (IC50) was determined in the following way: • 1. Establishment of the value for 0% inhibition. This is the measurement in the absence of substance, measured in sodium-containing transport assay buffer. • 2. Establishment of the value for 100% inhibition. This is the measurement in the absence of substance, measured in sodium-free transport assay buffer (140 mM choline chloride, 2 mM potassium chloride, 1 mM magnesium chloride, 1 mM calcium chloride, 10mM HEPES/Tris, pH7.5). • 3. Calculation of the percentage inhibitions for the measurements carried out in the presence of various concentrations of test substance. It was then possible to ascertain therefrom the concentration of test substance which reduced the uptake of methyl α-D-glucopyranoside by 50% (IC50).\nIC50 values of test substances (μM) [in vitro testing of the uptake of methyl α-D-glucopyranoside]", "units": {"IC50": "nM"}, "values": [
      {"smiles": "CC(C)c1[nH]nc(OC2OC(CO)C(F)C(O)C2O)c1Cc1ccc(/C=C/CC(=O)NCCC(N)=O)cc1", "note": "(stereo not drawn) [Example 3]", "IC50": 43},
      {"smiles": "Cc1[nH]nc(OC2OC(CO)C(F)C(O)C2O)c1Cc1ccc(CCCC(=O)NCCC(N)=O)cc1", "note": "(stereo not drawn) [Example 6]", "IC50": 133},
      {"smiles": "CC(C)c1[nH]nc(OC2OC(CO)C(F)C(O)C2O)c1Cc1ccc(CCCC(=O)N[C@@H](CO)C(N)=O)cc1", "note": "(stereo partly drawn) [Example 9]", "IC50": 81},
      {"smiles": "CC(C)c1[nH]nc(OC2OC(CO)C(F)C(O)C2O)c1Cc1ccc(CCCC(=O)N2CCN(C)CC2)cc1", "note": "(stereo not drawn) [Example 12]", "IC50": 139},
      {"smiles": "CC(C)c1[nH]nc(OC2OC(CO)C(F)C(O)C2O)c1Cc1ccc(CCCC(=O)N2CCCC2)cc1", "note": "(stereo not drawn) [Example 15]", "IC50": 170},
      {"smiles": "CC(C)c1[nH]nc(OC2OC(CO)C(F)C(O)C2O)c1Cc1ccc(CCC(=O)NC(C)(C)CO)cc1", "note": "(stereo not drawn) [Example 18]", "IC50": 80},
      {"smiles": "CC(C)c1[nH]nc(OC2OC(CO)C(F)C(O)C2O)c1Cc1ccc(CCCC(=O)NC(CO)(CO)CO)cc1", "note": "(stereo not drawn) [Example 21]", "IC50": 47},
      {"smiles": "CC(C)c1[nH]nc(OC2OC(CO)C(F)C(O)C2O)c1Cc1ccc(CCCC(=O)NCCCN)cc1", "note": "(stereo not drawn) [Example 22]", "IC50": 144},
      {"smiles": "CC(C)c1[nH]nc(OC2OC(CO)C(F)C(O)C2O)c1Cc1ccc(CCCC(=O)N[C@@H]2O[C@H](CO)[C@@H](O)[C@H](O)[C@H]2O)cc1", "note": "(stereo partly drawn) [Example 24]", "IC50": 208},
      {"smiles": "CCCNC(=O)NCCCc1ccc(Cc2c(OC3OC(CO)C(F)C(O)C3O)n[nH]c2C)cc1", "note": "(stereo not drawn) [Example 31]", "IC50": 252},
      {"smiles": "CC(C)c1[nH]nc(O[C@@H]2O[C@H](CO)[C@@H](F)[C@H](O)[C@H]2O)c1Cc1ccc(C(=O)NCC(N)=O)cc1", "note": "[Example 33]", "IC50": 70},
      {"smiles": "CC(C)c1[nH]nc(OC2OC(CO)C(F)C(O)C2O)c1Cc1ccc(CCCNC(=O)N2CCN(C)CC2)cc1", "note": "(stereo not drawn) [Example 36]", "IC50": 43}
    ]}
  ]
}
